Measured values taken from patent publication USRE37781E1, “Substituted cyclic carbonyls and derivatives thereof useful as retroviral protease inhibitors” (DuPont Pharmaceuticals Company, priority 1991, dated 2002).
Values after ≈ are worked out from the molar mass of the structure shown. Like-named read-outs stand apart in the source and are kept apart here.

What was measured:
[1] = biological target: single-chain tethered dimer of HIV protease (Human immunodeficiency virus 1, UniProt P04585); assay: biochemical; format: biochemical; parameters: fused on or other part: A second copy of the same protease unit is joined to the first by a short peptide tether, giving one polypeptide
[2] = system: HIV-1 (RF) in MT-2 cells; assay: microbe, parasite or virus in culture; format: cell-based
Summary of the method: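 HIV-1 laboratory strains (RF, MN, IIIB) grown in H9 cells in RPMI 1640 with 5% FCS; infections in MT-2 cells. Viral RNA quantified by hybridization with biotinylated gag/pol capture probes on streptavidin plates and alkaline phosphatase-conjugated reporter probes; BH10 gag-pol in vitro transcripts serve as RNA standards.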

[3] = read-out: HPLC K1, Table 2d, HIV protease inhibition, HPLC method
[4] = Human immunodeficiency virus 1, MT2, 48 h, Table 2d, HIV RNA assay, read-out: IC90
[5] = read-out: HPLC K1, Table 2d, class symbols
[6] = Human immunodeficiency virus 1, MT2, 48 h, Table 2d, class symbols, read-out: IC90
[7] = HIV protease inhibition, HPLC method, Table 2d, read-out: HPLC K1
[8] = HIV RNA assay, HIV-1 infected MT-2 cells, Table 2d
[9] = Table 2d, HIV protease inhibition, HPLC method, read-out: HPLC K1
[10] = Table 2d, class symbols, read-out: HPLC K1

## Oc1ccc(CN2C(=S)N(Cc3ccc(O)cc3)C(Cc3ccccc3)C(O)C(O)C2Cc2ccccc2)cc1 (centres unmarked) [Example 27F]
[1]; Table 2q, read-out: HPLC Ki
  Ki: < 0.01 µM
[2]; Table 2q
  IC90: +++ (+++=<10 μg/mL)

## N#Cc1cc(CN2C(=O)N(Cc3ccc(F)c(C#N)c3)C(Cc3ccccc3)C(O)C(O)C2Cc2ccccc2)ccc1F (centres unmarked) [15EC]
[1]; [3]
  Ki: 0.01 to 1 µM
[2]; [4]
  IC90: < 10 µg/mL

## N#Cc1cccc(CN2C(=S)N(Cc3ccccc3)C(Cc3ccccc3)C(O)C(O)C2Cc2ccccc2)c1 (centres unmarked) [Example 27E]
[1]; Table 2q, read-out: HPLC Ki
  Ki: < 0.01 µM
[2]; Table 2q
  IC90: +++ (+++=<10 μg/mL)

## O=C(O)CCCCCN1C(=O)N(CCCCCC(=O)O)C(Cc2ccccc2)C(O)C(O)C1Cc1ccccc1 (centres unmarked) [Example 12G]
[1]; [5]
  Ki: < 0.01 µM
[2]; [6]
  IC90: < 10 µg/mL

## O=C(c1cccc(CN2C(=O)N(Cc3cccc(C(=O)c4cc[nH]n4)c3)C(Cc3ccccc3)C(O)C(O)C2Cc2ccccc2)c1)c1cc[nH]n1 (centres unmarked) [Example 15YN]
[1]; [3]
  Ki: < 0.01 µM
[2]; [4]
  IC90: < 10 µg/mL

## O=C1N(Cc2ccoc2)C(Cc2ccccc2)C(O)C(O)C(Cc2ccccc2)N1Cc1coc(CO)c1 (centres unmarked) [Example 15FR]
[1]; [7]
  Ki: < 0.01 µM
[2]; [8]
  IC90: +++ (+++=<10 μg/mL)

## O=Cc1cccc(CN2C(Cc3ccccc3)C(O)C(O)C(Cc3ccccc3)N(Cc3cccc(C=O)c3)S2(=O)=O)c1 (centres unmarked) [23Q]
[1]; Table 2m, read-out: HPLC Ki
  Ki: < 0.01 µM
[2]; Table 2m
  IC90: +++ (+++=<10 μg/mL)

## CC(=O)OCCCCCCN1C(=O)N(CCCCCCO)C(Cc2ccccc2)C(O)C(O)C1Cc1ccccc1 (centres unmarked) [Example 12V]
[1]; [5]
  Ki: 0.01 to 1 µM
[2]; [6]
  IC90: < 10 µg/mL

## O=C(NCCCCCN1C(=O)N(CCCCCNC(=O)c2cccc(C(F)(F)F)c2)C(Cc2ccccc2)C(O)C(O)C1Cc1ccccc1)c1cccc(C(F)(F)F)c1 (centres unmarked) [15FJ]
[1]; [7]
  Ki: 0.01 to 1 µM
[2]; [8]
  IC90: ++/+ (The ++/+ is used in the cases where an IC90 was determined to be >50 μg/mL)

## COCc1cccc(CN2C(Cc3ccccc3)C(O)C(O)C(Cc3ccccc3)N(Cc3cccc(COC)c3)S2(=O)=O)c1 (centres unmarked) [23P]
[1]; Table 2m, read-out: HPLC Ki
  Ki: 0.01 to 1 µM
[2]; Table 2m
  IC90: ++ (++=10 to 100 μg/mL)

## NCCCCN1C(=O)N(CCCCN)C(Cc2ccccc2)C(O)C(O)C1Cc1ccccc1 (centres unmarked) [15FI]
[1]; read-out: HPLC K1, HIV protease inhibition, HPLC method, Table 2d
  Ki: > 1 µM
[2]; Human immunodeficiency virus 1, MT2, 48 h, HIV RNA assay, HIV-1 infected MT-2 cells, Table 2d, read-out: IC90
  IC90: > 50 µg/mL

## CN1C(Cc2ccccc2)C(O)C(O)C(Cc2ccccc2)N(C)S1(=O)=O (centres unmarked) [23V]
[1]; Table 2m, read-out: HPLC Ki
  Ki: > 1 µM
[2]; Table 2m
  IC90: ++/+ (The ++/+ is used in the cases where an IC90 was determined to be >50 μg/mL)

## O=C1N(Cc2cccnc2Cl)C(Cc2ccccc2)C(O)C(O)C(Cc2ccccc2)N1Cc1cccnc1Cl (centres unmarked) [Example 14A]
[1]; [5]
  Ki: 0.01 to 1 µM
[2]; [6]
  IC90: 10 to 100 µg/mL (≈ 17.3 to 173 µM)

## O=C1N(CCCCCCO)C(Cc2ccccc2)C(O)C(O)C(Cc2ccccc2)N1Cc1ccc2ccccc2c1 (centres unmarked) [Example 15VQ]
[1]; [5]
  Ki: < 0.01 µM
[2]; [6]
  IC90: < 10 µg/mL

## CNc1cccc(CN2[C@H](Cc3ccccc3)[C@H](O)[C@@H](O)[C@@H](Cc3ccccc3)N(Cc3cccc(NC)c3)P2(=O)Oc2ccccc2)c1 (some centres unmarked) [28L]
[1]; Table 2r, read-out: Ki HPLC
  Ki: 0.01 to 1 µM
[2]; Table 2r
  IC90: ++ (++=10 to 100 μg/mL)

## O=C1N(CCCCCCO)C(Cc2ccccc2)C(O)C(O)C(Cc2ccccc2)N1CCCCCCCl (centres unmarked) [Example 15VE]
[1]; [5]
  Ki: 0.01 to 1 µM
[2]; [6]
  IC90: < 10 µg/mL

## O=C1N(CC2CC2)C(Cc2ccccc2)C(O)C(O)C(Cc2ccccc2)N1c1ccccn1 (centres unmarked) [Example 14D]
[1]; [5]
  Ki: 0.01 to 1 µM
[2]; [6]
  IC90: < 10 µg/mL

## N#Cc1cccc(CN2C(Cc3ccccc3)C(O)C(O)C(Cc3ccccc3)N(Cc3cccc(C#N)c3)S2(=O)=O)c1 (centres unmarked) [23Y]
[1]; Table 2m, read-out: HPLC Ki
  Ki: 0.01 to 1 µM
[2]; Table 2m
  IC90: +++ (+++=<10 μg/mL)

## CC1(C)CCC(C)(C)c2cc(CN3C(=O)N(Cc4ccc5c(c4)C(C)(C)CCC5(C)C)C(Cc4ccccc4)C(O)C(O)C3Cc3ccccc3)ccc21 (centres unmarked) [15EL]
[1]; [9]
  Ki: > 1 µM
[2]; Table 2d, HIV RNA assay
  IC90: ++/+ (The ++/+ is used in the cases where an IC90 was determined to be >50 μg/mL)

## O=C1N(CCCCCO)C(Cc2ccccc2)C(O)C(O)C(Cc2ccccc2)N1CCCCCO (centres unmarked) [Example 13H]
[1]; [5]
  Ki: < 0.01 µM
[2]; [6]
  IC90: < 10 µg/mL

## Nc1ccc(CC2C(O)C(O)C(Cc3ccc(N)cc3)N(CC3CC3)C(=O)N2CC2CC2)cc1 (centres unmarked) [Example 20F]
[1]; read-out: HPLC Ki, Table 2i
  Ki: 0.01 to 1 µM
[2]; Human immunodeficiency virus 1, MT2, Table 2i, read-out: IC90
  IC90: < 10 µg/mL

## CCCCN1C(=O)N(CCCC)C(Cc2ccccc2[N+](=O)[O-])C(O)C(O)C1Cc1ccc([N+](=O)[O-])cc1 (centres unmarked) [20C]
[1]; Table 2i, read-out: HPLC Ki
  Ki: < 0.01 µM
[2]; Table 2i
  IC90: +++ (+++=<10 μg/mL)

## O=C1N(Cc2ccccc2)C(Cc2ccccc2)C(O)C(O)C(Cc2ccccc2)N1CC1CC1CO (centres unmarked) [Example 12M]
[1]; [5]
  Ki: < 0.01 µM
[2]; [6]
  IC90: < 10 µg/mL

## CCCN1C(Cc2ccccc2)C(O)C(O)C(Cc2ccccc2)N(CCC)S1(=O)=O (centres unmarked) [23X]
[1]; Table 2m, read-out: HPLC Ki
  Ki: < 0.01 µM
[2]; Table 2m
  IC90: +++ (+++=<10 μg/mL)

## COc1cccc(CC2C(O)C(O)C(Cc3cccc(OC)c3)N(Cc3cccc(OC)c3)C(=O)N2Cc2cccc(OC)c2)c1 (centres unmarked) [20AU]
[1]; Table 2i, read-out: HPLC Ki
  Ki: < 0.01 µM
[2]; Table 2i
  IC90: +++ (+++=<10 μg/mL)

## NC(=O)c1cc(CN2C(=O)N(Cc3ccc(F)c(C(N)=O)c3)C(Cc3ccccc3)C(O)C(O)C2Cc2ccccc2)ccc1F (centres unmarked) [15ED]
[1]; [9]
  Ki: < 0.01 µM
[2]; Table 2d, HIV RNA assay
  IC90: ++ (++=10 to 100 μg/mL)

## O=C1N(CCCCC(Br)CBr)C(Cc2ccccc2)C(O)C(O)C(Cc2ccccc2)N1CCCCC(Br)CBr (centres unmarked) [Example 13F]
[1]; [5]
  Ki: 0.01 to 1 µM
[2]; [6]
  IC90: > 100 µg/mL

## O=C(O)c1ccc(CN2C(=O)N(Cc3ccc(CO)cc3)C(Cc3ccccc3)C(O)C(O)C2Cc2ccccc2)cc1 (centres unmarked) [15XA]
[1]; [3]
  Ki: < 0.01 µM
[2]; [4]
  IC90: 10 to 100 µg/mL (≈ 17.2 to 172 µM)

## CN(C)S(=O)(=O)n1ccnc1-c1cccc(CN2C(=O)N(Cc3cccc(-c4nccn4S(=O)(=O)N(C)C)c3)C(Cc3ccccc3)C(O)C(O)C2Cc2ccccc2)c1 (centres unmarked) [Example 15BM]
[1]; [3]
  Ki: 0.01 to 1 µM
[2]; [4]
  IC90: < 10 µg/mL

## O=Cc1ccc(CN2C(=O)N(Cc3ccc(CO)cc3)C(Cc3ccccc3)C(O)C(O)C2Cc2ccccc2)cc1 (centres unmarked) [15XB]
[1]; [3]
  Ki: < 0.01 µM
[2]; [4]
  IC90: < 10 µg/mL

## CNC(=NO)c1cccc(CN2C(=O)N(Cc3cccc(C(=NO)NC)c3)C(Cc3ccccc3)C(O)C(O)C2Cc2ccccc2)c1 (centres unmarked) [15AZ]
[1]; [9]
  Ki: < 0.01 µM
[2]; Table 2d, HIV RNA assay
  IC90: +++ (+++=<10 μg/mL)

## CCNC(=O)c1cccc(CN2C(=O)N(Cc3cccc(C(=O)OC)c3)C(Cc3ccccc3)C(O)C(O)C2Cc2ccccc2)c1 (centres unmarked) [11U]
[1]; [5]
  Ki: < 0.01 µM
[2]; [6]
  IC90: < 10 µg/mL

## O=C1N(CC2CC2)C(Cc2ccccc2)C(O)C(O)C(Cc2ccccc2)N1CC1CC1 (centres unmarked) [Example 13o]
[1]; [10]
  Ki: > 1 µM
[2]; Table 2d, class symbols
  IC90: ++ (++=10 to 100 μg/mL)

## Cc1cccc(CN2C(=O)N(Cc3cccc(O)c3)C(Cc3ccccc3)C(O)C(O)C2Cc2ccccc2)c1 (centres unmarked) [10J]
[1]; [10]
  Ki: < 0.01 µM
[2]; Table 2d, class symbols
  IC90: +++ (+++=<10 μg/mL)

## O=C1N(Cc2cccc(C(O)C(F)(F)F)c2)C(Cc2ccccc2)C(O)C(O)C(Cc2ccccc2)N1Cc1cccc(C(O)C(F)(F)F)c1 (centres unmarked) [Example 15XI]
[1]; [3]
  Ki: < 0.01 µM
[2]; [4]
  IC90: < 10 µg/mL

## COP1(=O)N(Cc2ccc(CO)cc2)[C@H](Cc2ccccc2)[C@H](O)[C@@H](O)[C@@H](Cc2ccccc2)N1Cc1ccc(CO)cc1 (some centres unmarked) [28H]
[1]; Table 2r, read-out: Ki HPLC
  Ki: 0.01 to 1 µM
[2]; Table 2r
  IC90: ++ (++=10 to 100 μg/mL)

## CNc1n[nH]c2ccc(CN3C(=O)N(Cc4ccc5[nH]nc(NC)c5c4)C(Cc4ccccc4)C(O)C(O)C3Cc3ccccc3)cc12 (centres unmarked) [15DH]
[1]; [9]
  Ki: < 0.01 µM
[2]; Table 2d, HIV RNA assay
  IC90: +++ (+++=<10 μg/mL)

## NNC(=O)c1ccc(CN2C(=O)N(Cc3cccc(C(=O)NN)c3)C(Cc3ccccc3)C(O)C(O)C2Cc2ccccc2)cc1 (centres unmarked) [10N]
[1]; [10]
  Ki: < 0.01 µM
[2]; Table 2d, class symbols
  IC90: +++ (+++=<10 μg/mL)

## O=C1N(CCCCCO)C(Cc2ccccc2)C(O)C(O)C(Cc2ccccc2)N1Cc1ccccc1 (centres unmarked) [Example 15VI]
[1]; [5]
  Ki: < 0.01 µM
[2]; [6]
  IC90: < 10 µg/mL

## CNCC(=O)Nc1cccc(CN2C(=O)N(Cc3cccc(NC(=O)CNC)c3)C(Cc3ccccc3)C(O)C(O)C2Cc2ccccc2)c1.Cl.Cl (centres unmarked) [15O]
[1]; [10]
  Ki: < 0.01 µM
[2]; Table 2d, class symbols
  IC90: +++ (+++=<10 μg/mL)
